According to ChEMBL document CHEMBL3046040, “Synthesis, cytostatic and anti-viral activity evaluation of the novel acyclic nucleoside analogues containing a sterically constrained (Z)-4-amino-2-butenyl moiety” (Med Chem Res, 2011):
The source made the active and inactive calls. The rule behind the calls is not given here.

The compounds below were run on MCF7 (assay: Antiproliferative activity against Homo sapiens (human) MCF7 cells by MTT assay). Conditions: not given.
Type: functional, cell-based
`NC/C=C\Cn1cnc2c(N)ncnc21` was tested, and the IC50 was > 100 µM.
For `NC/C=C\Cn1cnc2c(Cl)nc(N)nc21`, the IC50 was > 100 µM.
`NC/C=C\Cn1cnc2c(=O)[nH]cnc21` was tested, and the IC50 was > 100 µM.

These compounds were tested on Vesicular stomatitis virus (assay: Antiviral activity against Vesicular stomatitis virus infected HeLa cells assessed as inhibition of virus-induced cytopathic effect). Conditions: not given.
Type: functional, organism-based
In the case of `NC/C=C\Cn1cnc2c(N)ncnc21`, the Activity is reported as “inactive”.
In the case of `NC/C=C\Cn1cnc2c(Cl)nc(N)nc21`, the Activity is reported as “inactive”.
`NC/C=C\Cn1cnc2c(=O)[nH]cnc21` was tested, and the Activity was “inactive”.

Each compound was assayed on Respiratory syncytial virus (assay: Antiviral activity against Respiratory syncytial virus infected HeLa cells assessed as inhibition of virus-induced cytopathic effect). Conditions: not given.
Type: functional, organism-based
With `NC/C=C\Cn1cnc2c(N)ncnc21` the Activity was “inactive”.
In the case of `NC/C=C\Cn1cnc2c(Cl)nc(N)nc21`, the Activity is reported as “inactive”.
For `NC/C=C\Cn1cnc2c(=O)[nH]cnc21`, the Activity was “inactive”.

The compounds below were run on Human immunodeficiency virus 1 (assay: Antiviral activity against Human immunodeficiency virus 1 IIIB infected CEM cells assessed as inhibition of virus-induced giant cell formation after 4 days by microscopic analysis). Conditions: CCRF-CEM, 96 h.
Type: functional, organism-based
`NC/C=C\Cn1cnc2c(Cl)nc(N)nc21` was tested, and the EC50 was ≥ 100 µM.
With `NC/C=C\Cn1cnc2c(=O)[nH]cnc21` the EC50 was ≥ 100 µM.

These compounds were tested on L1210 (assay: Cytostatic activity against Mus musculus (mouse) L1210 cells after 48 hr by Coulter counting analysis). Conditions: Mus musculus, L1210, 48 h.
Type: functional, cell-based
Work on `NC/C=C\Cn1cnc2c(N)ncnc21` yielded an IC50 of 276 µM.
In the case of `NC/C=C\Cn1cnc2c(Cl)nc(N)nc21`, the IC50 is reported as > 500 µM.
In the case of `NC/C=C\Cn1cnc2c(=O)[nH]cnc21`, the IC50 is reported as 114 µM.

Each compound was assayed on Influenza A virus (assay: Antiviral activity against Unidentified Influenza A virus ([…]) infected MDCK cells assessed as inhibition of virus-induced cytopathic effect). Conditions: Influenza A virus (H1N1).
Type: functional, organism-based
`NC/C=C\Cn1cnc2c(N)ncnc21` was tested, and the Activity was “inactive”.
For `NC/C=C\Cn1cnc2c(Cl)nc(N)nc21`, the Activity was “inactive”.
In the case of `NC/C=C\Cn1cnc2c(=O)[nH]cnc21`, the Activity is reported as “inactive”.

These compounds were tested on HeLa (assay: Antiproliferative activity against Homo sapiens (human) HeLa cells by MTT assay). Conditions: not given.
Type: functional, cell-based
`NC/C=C\Cn1cnc2c(N)ncnc21` was tested, and the IC50 was > 100 µM.
`NC/C=C\Cn1cnc2c(Cl)nc(N)nc21` was tested, and the Activity was “Dose-dependent effect” and the IC50 was 54 µM.
Work on `NC/C=C\Cn1cnc2c(=O)[nH]cnc21` yielded an IC50 of 69.1 µM.

Each compound was assayed on Punta Toro virus (assay: Antiviral activity against Punta Toro virus infected Vero cells assessed as inhibition of virus-induced cytopathic effect). Conditions: not given.
Type: functional, organism-based
With `NC/C=C\Cn1cnc2c(N)ncnc21` the Activity was “inactive”.
For `NC/C=C\Cn1cnc2c(Cl)nc(N)nc21`, the Activity was “inactive”.
`NC/C=C\Cn1cnc2c(=O)[nH]cnc21` was tested, and the Activity was “inactive”.

These compounds were tested on Influenza B virus (assay: Antiviral activity against Influenza B virus infected MDCK cells assessed as inhibition of virus-induced cytopathic effect). Conditions: not given.
Type: functional, organism-based
With `NC/C=C\Cn1cnc2c(N)ncnc21` the Activity was “inactive”.
For `NC/C=C\Cn1cnc2c(Cl)nc(N)nc21`, the Activity was “inactive”.
`NC/C=C\Cn1cnc2c(=O)[nH]cnc21` was tested, and the Activity was “inactive”.

These compounds were tested on Human respirovirus 3 (assay: Antiviral activity against Human parainfluenza virus 3 infected Vero cells assessed as inhibition of virus-induced cytopathic effect). Conditions: not given.
Type: functional, organism-based
With `NC/C=C\Cn1cnc2c(N)ncnc21` the Activity was “inactive”.
In the case of `NC/C=C\Cn1cnc2c(Cl)nc(N)nc21`, the Activity is reported as “inactive”.
`NC/C=C\Cn1cnc2c(=O)[nH]cnc21` was tested, and the Activity was “inactive”.

Each compound was assayed on Human alphaherpesvirus 1 (assay: Antiviral activity against Human herpesvirus 1 strain KOS infected in HEL cells assessed as inhibition of virus-induced cytopathic effect). Conditions: not given.
Type: functional, organism-based
In the case of `NC/C=C\Cn1cnc2c(N)ncnc21`, the Activity is reported as “inactive”.
For `NC/C=C\Cn1cnc2c(Cl)nc(N)nc21`, the Activity was “inactive”.
With `NC/C=C\Cn1cnc2c(=O)[nH]cnc21` the Activity was “inactive”.

The compounds below were run on HepG2 (assay: Antiproliferative activity against Homo sapiens (human) HepG2 cells by MTT assay). Conditions: not given.
Type: functional, cell-based
For `NC/C=C\Cn1cnc2c(N)ncnc21`, the IC50 was > 100 µM.
For `NC/C=C\Cn1cnc2c(Cl)nc(N)nc21`, the IC50 was > 100 µM.
In the case of `NC/C=C\Cn1cnc2c(=O)[nH]cnc21`, the IC50 is reported as > 100 µM.

These compounds were tested on MOLT-4 (assay: Cytostatic activity against Homo sapiens (human) Molt4/C8 cells after 72 hr by Coulter counting analysis). Conditions: MOLT-4, 72 h.
Type: functional, cell-based
`NC/C=C\Cn1cnc2c(N)ncnc21` was tested, and the IC50 was 248 µM.
`NC/C=C\Cn1cnc2c(Cl)nc(N)nc21` was tested, and the IC50 was > 500 µM.
With `NC/C=C\Cn1cnc2c(=O)[nH]cnc21` the IC50 was > 500 µM.

What follows are compounds tested on WI-38 (assay: Antiproliferative activity against Homo sapiens (human) WI38 cells by MTT assay). Conditions: not given.
Type: cell-based
For `NC/C=C\Cn1cnc2c(N)ncnc21`, the IC50 was 69.1 µM.
For `NC/C=C\Cn1cnc2c(Cl)nc(N)nc21`, the IC50 was > 100 µM.
For `NC/C=C\Cn1cnc2c(=O)[nH]cnc21`, the IC50 was > 100 µM.

What follows are compounds tested on Coxsackievirus B4 (assay: Antiviral activity against Human coxsackievirus B4 infected HeLa cells assessed as inhibition of virus-induced cytopathic effect). Conditions: not given.
Type: functional, organism-based
In the case of `NC/C=C\Cn1cnc2c(N)ncnc21`, the Activity is reported as “inactive”.
With `NC/C=C\Cn1cnc2c(Cl)nc(N)nc21` the Activity was “inactive”.
For `NC/C=C\Cn1cnc2c(=O)[nH]cnc21`, the Activity was “inactive”.

Each compound was assayed on MIA PaCa-2 (assay: Antiproliferative activity against Homo sapiens (human) MIAPaCa2 cells by MTT assay). Conditions: not given.
Type: functional, cell-based
With `NC/C=C\Cn1cnc2c(N)ncnc21` the IC50 was > 100 µM.
In the case of `NC/C=C\Cn1cnc2c(Cl)nc(N)nc21`, the IC50 is reported as > 100 µM.
`NC/C=C\Cn1cnc2c(=O)[nH]cnc21` was tested, and the IC50 was > 100 µM.

Each compound was assayed on Human immunodeficiency virus 2 (assay: Antiviral activity against Human immunodeficiency virus type 2 (ISOLATE ROD) infected CEM cells assessed as inhibition of virus-induced giant cell formation after 4 days by microscopic analysis). Conditions: Human immunodeficiency virus 2, ISOLATE ROD, CCRF-CEM, 96 h.
Type: functional, organism-based
With `NC/C=C\Cn1cnc2c(Cl)nc(N)nc21` the EC50 was ≥ 100 µM.
With `NC/C=C\Cn1cnc2c(=O)[nH]cnc21` the EC50 was ≥ 100 µM.

The compounds below were run on Reovirus sp. (assay: Antiviral activity against Mammalian orthoreovirus 1 infected Vero cells assessed as inhibition of virus-induced cytopathic effect). Conditions: not given.
Type: functional, organism-based
For `NC/C=C\Cn1cnc2c(N)ncnc21`, the Activity was “inactive”.
For `NC/C=C\Cn1cnc2c(Cl)nc(N)nc21`, the Activity was “inactive”.
With `NC/C=C\Cn1cnc2c(=O)[nH]cnc21` the Activity was “inactive”.

Each compound was assayed on CCRF-CEM (assay: Cytostatic activity against Homo sapiens (human) CEM cells after 72 hr by Coulter counting analysis). Conditions: not given.
Type: functional, cell-based
`NC/C=C\Cn1cnc2c(N)ncnc21` showed an IC50 of 340 µM.
With `NC/C=C\Cn1cnc2c(Cl)nc(N)nc21` the IC50 was > 500 µM.
With `NC/C=C\Cn1cnc2c(=O)[nH]cnc21` the IC50 was > 500 µM.

The compounds below were run on Coxsackievirus B4 (assay: Antiviral activity against Human coxsackievirus B4 infected Vero cells assessed as inhibition of virus-induced cytopathic effect). Conditions: not given.
Type: functional, organism-based
For `NC/C=C\Cn1cnc2c(N)ncnc21`, the Activity was “inactive”.
`NC/C=C\Cn1cnc2c(Cl)nc(N)nc21` was tested, and the Activity was “inactive”.
In the case of `NC/C=C\Cn1cnc2c(=O)[nH]cnc21`, the Activity is reported as “inactive”.

These compounds were tested on SW-620 (assay: Antiproliferative activity against Homo sapiens (human) SW620 cells by MTT assay). Conditions: Homo sapiens, SW-620.
Type: functional, cell-based
`NC/C=C\Cn1cnc2c(N)ncnc21` gave an IC50 of 77.1 µM.
For `NC/C=C\Cn1cnc2c(Cl)nc(N)nc21`, the IC50 was > 100 µM.
With `NC/C=C\Cn1cnc2c(=O)[nH]cnc21` the IC50 was > 100 µM.

What follows are compounds tested on Influenza A virus H3N2 (assay: Antiviral activity against Influenza A virus H3N2 infected MDCK cells assessed as inhibition of virus-induced cytopathic effect). Conditions: not given.
Type: functional, organism-based
With `NC/C=C\Cn1cnc2c(N)ncnc21` the Activity was “inactive”.
For `NC/C=C\Cn1cnc2c(Cl)nc(N)nc21`, the Activity was “inactive”.
With `NC/C=C\Cn1cnc2c(=O)[nH]cnc21` the Activity was “inactive”.

Each compound was assayed on Human alphaherpesvirus 2 (assay: Antiviral activity against Human herpesvirus 2 strain G infected HEL cells assessed as inhibition of virus-induced cytopathic effect). Conditions: not given.
Type: functional, organism-based
With `NC/C=C\Cn1cnc2c(N)ncnc21` the Activity was “inactive”.
`NC/C=C\Cn1cnc2c(Cl)nc(N)nc21` was tested, and the Activity was “inactive”.
`NC/C=C\Cn1cnc2c(=O)[nH]cnc21` was tested, and the Activity was “inactive”.

Each compound was assayed on Sindbis virus (assay: Antiviral activity against Sindbis virus infected Vero cells assessed as inhibition of virus-induced cytopathic effect). Conditions: not given.
Type: functional, organism-based
`NC/C=C\Cn1cnc2c(N)ncnc21` was tested, and the Activity was “inactive”.
`NC/C=C\Cn1cnc2c(Cl)nc(N)nc21` was tested, and the Activity was “inactive”.
`NC/C=C\Cn1cnc2c(=O)[nH]cnc21` was tested, and the Activity was “inactive”.
